This experiment can be described thus: clinical trial: lipoprotein profiles in blood serum of patients treated with a PDE4 inhibitor (ultracentrifugation density separation). It is filed as in vivo, human. How it is done:
In a clinical trial, five patients were treated by daily doses of a PDE4 inhibitor. As an exemplifying and representative compound, roflumilast was used as the PDE4 inhibitor. Lipoprotein profiles were measured at start of the therapy (time T0), four weeks after start (T1) and eight weeks after start (T2). Treatment was further monitored thereafter. In an embodiment, a first unit dose ([…]) was administered orally every second day for a period of four weeks, and subsequently the dose was increased to a unit of […] per day until a time of 8 weeks.
For analysing and measuring the lipoprotein profiles and thus the relative concentrations and levels of lipoprotein fractions and the cholesterol and triglyceride amounts per lipoprotein, 10 ml venous blood was drawn at the indicated time Points. Lipoprotein profiles and fractions were determined using density separation by means of ultra-centrifugation and subsequent determination of the lipoprotein components (Baumstark et al., Biochem. Biophys. Acta—Protein Structure and Molecular Enzymology 1037, 48-57 (1990); Frey et al., Eur. J. Appl, Physiol. 60, 441-444 (1990)). The components and parameters determined include cholesterol and triglyceride proportions of HDL and LDL, and of sub-fractions LDL-1 to LDL-6, and HDL-2a-2b and -3. Statistical analysis of the results was carried out by SPSS 23.0.

[1] abbreviates: five patients, oral roflumilast, T1 (4 weeks) and T2 (8 weeks) compared to T0, blood serum.
[2] abbreviates: five patients, oral roflumilast, blood serum.

Take `O=C(Nc1c(Cl)cncc1Cl)c1ccc(OC(F)F)c(OCC2CC2)c1` [roflumilast, 3-cyclopropylmethoxy-4-difluoromethoxy-N-(3,5-dichloropyrid-4-yl)-benzamide]: under “after 12 weeks (not shown)”, the “persistence of the reduction of LDL-C” value is “maintained over longer time periods” and the “persistence of the reduction of LDL-TG” value is reported as “maintained over longer time periods”. Moreover, under setting [1], the “change of LDL-TG” value was “substantially reduced” and the “reduction of LDL-C” value is “approximately 30 mg/dl”. For the same compound, under setting [2], the “change of HDL-C” value is reported as “Slight reductions” and the “change of HDL-TG” value was “Slight reductions”.

Values taken from patent publication US20180318271A1, “Use of PDE4 Inhibitors for the Prophylaxis and/or Therapy of Dyslipoproteinaemia and Related Disorders” (Albert-Ludwigs-Universität Freiburg, priority 2015, published 2018).
